Measurements: patent publication US7429659B2, “Furan compounds as histamine H3 modulators” (Janssen Pharmaceutica N.V., priority 2004, dated 2008)
Structures can show the parent of a compound that is named as a salt.

Target: T1, human histamine H3 receptor (Homo sapiens, UniProt Q9Y5N1)
T1 construct: One μg supercoiled H3 receptor cDNA was added to the cells; expressed in transfected cells; membranes prepared from cell pellets
Assay: [3H]-N-Methylhistamine binding to membranes of histamine H3 receptor-expressing SK-N-MC cells
Conditions: 0.8 nM [3H]-N-methylhistamine, 60 min at 25° C., SK-N-MC cell membranes; Ki=(IC50)/(1+([L]/(KD))
Experimental: Cells were grown to about 70% to 80% confluence and removed from the plate with trypsin and pelleted in a clinical centrifuge. […] One μg supercoiled H3 receptor cDNA was added to the cells and mixed gently. […] Colonies that survived selection were grown and tested. SK-N-MC cells were used because they give efficient coupling for inhibition of adenylate cyclase. The clones that gave the most robust inhibition of adenylate cyclase in response to histamine were used for further study.
Supernatants from an 800 g spin were collected and were recentrifuged at 30,000 g for 30 min. Pellets were re-homogenized in 50 mM Tris/5 mM EDTA (pH 7.4). Membranes were incubated with 0.8 nM [^3H]-N-methylhistamine plus/minus test compounds for 60 min at 25° C. and were harvested by rapid filtration over GF/C glass fiber filters (pretreated with 0.3% polyethylenimine) followed by four washes with buffer. Filters were added to 5 mL of scintillation cocktail, and the signal was then counted on a liquid scintillation counter.

T1 sequence (Q9Y5N1 whole entry): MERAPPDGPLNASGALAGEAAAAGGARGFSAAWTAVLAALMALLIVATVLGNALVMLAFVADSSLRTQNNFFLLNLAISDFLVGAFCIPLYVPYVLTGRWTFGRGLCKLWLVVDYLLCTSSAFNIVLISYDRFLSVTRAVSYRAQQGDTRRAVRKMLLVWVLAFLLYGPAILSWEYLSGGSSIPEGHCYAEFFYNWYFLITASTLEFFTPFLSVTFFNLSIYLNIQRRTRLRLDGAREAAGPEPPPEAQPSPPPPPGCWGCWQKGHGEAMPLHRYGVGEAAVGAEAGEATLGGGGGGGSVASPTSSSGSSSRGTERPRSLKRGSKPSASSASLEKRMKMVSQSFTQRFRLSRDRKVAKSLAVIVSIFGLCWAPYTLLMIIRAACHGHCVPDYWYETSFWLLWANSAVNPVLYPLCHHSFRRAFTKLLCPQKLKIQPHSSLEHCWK

CC(C)N1CCN(C(=O)c2ccc(CN3CCC(F)CC3)o2)CC1 [Example 19, [5-(4-Fluoro-piperidin-1-ylmethyl)-furan-2-yl]-(4-isopropyl-piperazin-1-yl)-methanone, fumarate salt]
Ki: 64 nM
